According to ChEMBL document CHEMBL4834424, “Targeting Chikungunya Virus Replication by Benzoannulene Inhibitors” (J Med Chem, 2021):
pEC50, pIC50: −log10 of the molar value. Converted amounts (≈) assume the structure as drawn.

What was measured:
[1] = system: Chikungunya virus; experiment: (§1) Antiviral activity against CHIKV infected in human NHDF cells assessed as reduction in virus titer in cell supernatant by measuring inhibition of plaque formation using Vero cells pretreated with NHDF cells followed by infected with virus incubated for 24 hrs and measured following infection of supernatants with Vero cells for 48 hrs by plaque based methylene blue dye analysis; format: functional, organism-based
[2] = Metabolic stability in human liver microsomes assessed as half life in presence of NADPH incubated up to 45 mins by LC-MS/MS analysis; format: ADME, Microsome
[3] = Aqueous solubility of the compound; format: physicochemical
[4] = (§2) Cytotoxicity against human NHDF cells assessed as cell viability measured after 24 hrs by Cell Titer Glo luminescent assay; format: cell-based; settings: NHDF cells
[5] = Octanol-aqueous buffer distribution coefficient, log D of the compound by LC-MS analysis; format: physicochemical
[6] = system: Chikungunya virus; experiment: as §1, with “Vero cells at 10 uM pretreated with” for “Vero cells pretreated with”; format: functional; settings: time 72 hrs
[7] = Metabolic stability in mouse liver microsomes assessed as half life in presence of NADPH incubated up to 45 mins by LC-MS/MS analysis; format: ADME, Microsome; set-up: unit not given here; settings: for half-life: liver microsomes
[8] = biological target: Dihydroorotate dehydrogenase (quinone), mitochondrial (Homo sapiens, UniProt Q02127)
Dihydroorotate dehydrogenase (quinone), mitochondrial, sequence (Q02127 whole entry): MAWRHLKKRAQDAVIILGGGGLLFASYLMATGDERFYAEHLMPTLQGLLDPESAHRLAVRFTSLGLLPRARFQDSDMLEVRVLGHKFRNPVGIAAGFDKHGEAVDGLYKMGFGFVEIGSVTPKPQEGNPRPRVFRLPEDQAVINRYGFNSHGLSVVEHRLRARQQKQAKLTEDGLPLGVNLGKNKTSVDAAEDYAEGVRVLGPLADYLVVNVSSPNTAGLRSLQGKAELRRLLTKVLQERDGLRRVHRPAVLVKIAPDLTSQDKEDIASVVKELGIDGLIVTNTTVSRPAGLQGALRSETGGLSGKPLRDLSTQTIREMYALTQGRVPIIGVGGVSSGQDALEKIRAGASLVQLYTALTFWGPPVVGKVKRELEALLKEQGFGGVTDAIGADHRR

[9] = system: West Nile virus; experiment: (§3) Antiviral activity against West nile virus infected in HEK293 cells assessed as reduction in virus titer in cell supernatant by measuring inhibition of plaque formation using Vero cells at 10 uM measured following infection of supernatants with Vero cells for 48 hrs pi by serial dilution plaque based methylene blue dye analysis; format: functional
[10] = system: Chikungunya virus; format: functional; settings: 181-25, C6, time 48 hrs
[11] = system: Venezuelan equine encephalitis virus; experiment: Antiviral activity against Venezuelan equine encephalitis virus TC83 infected in Asian tiger mosquito C6/36 cells assessed as reduction in virus titer in cell supernatant by measuring inhibition of plaque formation using Vero cells and measured following infection of supernatants with Vero cells for 48 hrs pi by serial dilution plaque based methylene blue dye analysis; format: functional
[12] = system: dengue virus type 2; experiment: as §3, with “DENV2” for “West nile virus”; format: functional
[13] = system: NHDF; experiment: as §2; format: cell-based; settings: nhdf, 24 h

CC(C)(C)c1ccc(C(=O)Nc2cc3c(cc2F)CCCCC3)cc1
pEC50 [1]: 6.10
half-life [2]: 1.17 days
solubility ([3]; aqueous, read-out: solubility): 33 µM (≈ 11.2 µg/mL)
CC50 at 24 h [4]: > 30 µM
logD [5]: 4
log(activity) [6]: 4.9
t1/2 ([7]; microsomes, 0.75 h): 4

COc1cc2c(nc1NC(=O)c1ccc(C(C)(C)C)cc1)CCCCC2
pEC50 [1]: 6.23
CC50 at 24 h [4]: > 30 µM
log(activity) [6]: 3.18

COc1cc2c(cc1C(=O)Nc1cc(C(C)(C)C)[nH]n1)CCCCC2
pIC50 [8]: < 4.52

COc1cc2c(cc1C(=O)Nc1ccc(C(C)(C)C)cc1)CCCCC2
pEC50 [1]: 6.32
half-life [2]: 4.12 days
solubility ([3]; aqueous, read-out: solubility): 0.5 µM (≈ 0.176 µg/mL)
pIC50 [8]: 5.52
CC50 at 24 h [4]: > 30 µM
logD [5]: 4
log(activity) [9]: 1.7
EC90 [10]: 1600 nM
log(activity) [6]: 3.2
EC90 [11]: 2900 nM
log(activity) [12]: 1.9

COc1nc2c(cc1C(=O)Nc1ccc(C(C)(C)C)cn1)CCCCC2
half-life [2]: 3.67 days
solubility ([3]; aqueous, read-out: solubility): < 1 µM
CC50 at 24 h [4]: > 30 µM
logD [5]: > 4.7
log(activity) [6]: 0.27
half-life [7]: 3960

CC(C)(C)c1ccc(C(=O)Nc2cc3c(cc2[N+](=O)[O-])CCCCC3)cc1
CC50 at 24 h [4]: > 30 µM
log(activity) [6]: 0

CCOc1cc2c(cc1NC(=O)c1ccc(C(C)(C)C)cc1)CCCCC2
pEC50 [1]: 5.28
CC50 at 24 h [4]: > 30 µM
log(activity) [6]: 2.2

COc1cc2c(cc1NC(=O)c1ccc(C(C)(C)C(F)(F)F)cc1)CCCCC2
pEC50 [1]: 5.46
half-life [2]: 4.42 days
solubility ([3]; aqueous, read-out: solubility): < 1 µM
CC50 at 24 h [4]: > 30 µM
logD [5]: 6
log(activity) [6]: 1.8
half-life [7]: 2100

COc1cc2c(cc1C(=O)Nc1ccc(C(C)(C)C)cn1)CCCCC2
pIC50 [8]: < 4.52

Cc1cc2c(cc1NC(=O)c1ccc(C(C)(C)C)cc1)CCCCC2
pEC50 [1]: 5.62
half-life [2]: 2.62 days
solubility ([3]; aqueous, read-out: solubility): < 1 µM
CC50 at 24 h [4]: > 30 µM
logD [5]: 4
log(activity) [6]: 3.5
half-life [7]: 660

CCCOc1cc2c(cc1NC(=O)c1ccc(C(C)(C)C)cc1)CCCCC2
pEC50 [1]: 5.15
CC50 at 24 h [4]: > 30 µM
log(activity) [6]: 1

COc1cc2c(cc1NC(=O)c1ccc(C(C)(C)C#N)cc1)CCCCC2
pEC50 [1]: 5.80
half-life [2]: 2.12 days
solubility ([3]; aqueous, read-out: solubility): 35 µM (≈ 12.7 µg/mL)
CC50 at 24 h [4]: > 30 µM
logD [5]: 4
log(activity) [6]: 1.7
half-life [7]: 720

COc1nc2c(cc1C(=O)Nc1ccc(C(C)(C)C)cc1)CCCCC2
half-life [2]: 4.25 days
solubility ([3]; aqueous, read-out: solubility): 1.8 µM (≈ 0.634 µg/mL)
CC50 at 24 h [4]: > 30 µM
logD [5]: 4.6
log(activity) [6]: 1.3
half-life [7]: 2700

COc1cc2c(cc1C(=O)Nc1ccc(C(C)(C)O)cc1)CCCCC2
pEC50 [1]: 5.10
pIC50 [8]: 4.62
CC50 at 24 h [4]: > 30 µM
log(activity) [6]: 1.6

COc1cc2c(cc1NC(=O)c1ccc(C3(O)CCC3)cc1)CCCCC2
CC50 at 24 h [4]: > 30 µM
log(activity) [6]: <1

CC(C)(C)c1ccc(C(=O)Nc2cc3c(cc2OCc2ccccn2)CCC3)cc1
pEC50 [1]: 5.05
CC50 at 24 h [4]: > 30 µM
log(activity) [6]: 1.2

CCc1cc2c(cc1C(=O)Nc1ccc(C(C)(C)C)cc1)CCCCC2
CC50 at 24 h [4]: > 30 µM
log(activity) [6]: 0.2

COc1cc2c(cc1NC(=O)c1ccc(C(C)(C)CO)cc1)CCCCC2
pEC50 [1]: 5.15
CC50 at 24 h [4]: > 30 µM
log(activity) [6]: 3.1

COc1nc2c(cc1C(=O)Nc1ncc(C(C)(C)C)cn1)CCCCC2
pEC50 [1]: 5.05
half-life [2]: 2.79 days
solubility ([3]; buffer): 64 µM (≈ 22.7 µg/mL)
CC50 at 24 h [4]: > 30 µM
logD [5]: 3
log(activity) [6]: 1.95
half-life [7]: 1620

CC(C)(C)c1ccc(C(=O)Nc2cc3c(cc2N)CCCCC3)cc1
CC50 at 24 h [4]: > 30 µM
log(activity) [6]: 0

CCOc1cc2c(cc1NC(=O)c1ccc(C(C)(C)C)cc1)CCCC2
pEC50 [1]: 5.11
CC50 [13]: 3.86 µM
log(activity) [6]: 1

COc1cc2c(cc1NC(=O)c1ccc(C(O)(C(F)(F)F)C(F)(F)F)cc1)CCCCC2
pEC50 [1]: 5.55
half-life [2]: 2.92 days
solubility ([3]; aqueous, read-out: solubility): < 1 µM
CC50 at 24 h [4]: > 30 µM
logD [5]: 5
log(activity) [6]: 3.1
half-life [7]: 660

CC(C)(C)c1ccc(C(=O)Nc2cc3c(cc2O)CCCCC3)cc1
pEC50 [1]: 6.40
half-life [2]: 3.08 days
solubility ([3]; buffer): 1 µM (≈ 0.337 µg/mL)
pIC50 [8]: < 4.52
CC50 at 24 h [4]: > 30 µM
logD [5]: 5
log(activity) [6]: 3.5
half-life [7]: 1860

CC(C)(C)c1ccc(C(=O)Nc2cc3c(cc2OCc2ccccn2)CCCC3)cc1
pEC50 [1]: 5.04
CC50 at 24 h [4]: > 30 µM
log(activity) [6]: 1.1
